The text below walks through data of patent US10077243B2, “Compounds for treating disorders mediated by metabotropic glutamate receptor 5, and methods of use thereof” (Sunovion Pharmaceuticals Inc., priority 2009, dated 2018).

Some results are limits rather than exact numbers.

For the test, the target named is T1, human mGluR5 (Homo sapiens, UniProt P41594).
T1 construct: expressed in transfected cells; host or cells: HEK293 cells stably expressing rat GLAST (EAAT1), stably transfected with pcDNAzeo3.1 carrying synthetic human mGluR5 DNA; zeocin-selected single clones
T1 sequence (P41594 21-1212): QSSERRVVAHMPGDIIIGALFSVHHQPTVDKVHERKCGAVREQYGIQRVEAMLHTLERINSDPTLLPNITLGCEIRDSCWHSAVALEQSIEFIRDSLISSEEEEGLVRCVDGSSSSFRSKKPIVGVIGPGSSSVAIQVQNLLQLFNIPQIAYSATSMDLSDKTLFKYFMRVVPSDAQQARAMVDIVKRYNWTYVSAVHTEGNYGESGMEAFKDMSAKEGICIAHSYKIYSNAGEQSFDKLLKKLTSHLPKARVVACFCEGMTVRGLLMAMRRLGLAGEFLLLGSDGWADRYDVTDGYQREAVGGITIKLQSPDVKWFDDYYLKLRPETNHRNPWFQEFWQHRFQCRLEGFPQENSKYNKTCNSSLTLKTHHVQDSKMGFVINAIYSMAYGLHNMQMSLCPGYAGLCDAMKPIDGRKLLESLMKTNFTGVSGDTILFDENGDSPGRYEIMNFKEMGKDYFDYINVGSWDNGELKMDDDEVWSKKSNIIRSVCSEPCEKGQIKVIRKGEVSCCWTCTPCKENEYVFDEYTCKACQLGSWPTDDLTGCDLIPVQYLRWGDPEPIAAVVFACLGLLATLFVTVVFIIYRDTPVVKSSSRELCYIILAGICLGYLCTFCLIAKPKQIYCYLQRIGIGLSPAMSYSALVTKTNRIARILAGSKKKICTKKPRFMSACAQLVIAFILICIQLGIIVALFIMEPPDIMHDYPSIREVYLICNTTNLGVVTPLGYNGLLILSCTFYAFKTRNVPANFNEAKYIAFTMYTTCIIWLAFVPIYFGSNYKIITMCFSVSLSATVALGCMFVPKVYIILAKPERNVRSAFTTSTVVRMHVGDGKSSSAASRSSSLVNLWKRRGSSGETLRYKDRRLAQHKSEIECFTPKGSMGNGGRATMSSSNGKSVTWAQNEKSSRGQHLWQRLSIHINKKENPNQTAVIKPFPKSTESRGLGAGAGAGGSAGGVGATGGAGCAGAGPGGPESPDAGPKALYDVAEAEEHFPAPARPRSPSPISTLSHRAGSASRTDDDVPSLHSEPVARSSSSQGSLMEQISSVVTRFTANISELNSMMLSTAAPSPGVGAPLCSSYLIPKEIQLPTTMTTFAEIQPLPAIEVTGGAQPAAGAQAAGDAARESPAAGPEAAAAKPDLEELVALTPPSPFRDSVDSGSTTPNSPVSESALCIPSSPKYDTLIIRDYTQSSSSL
Description: In vitro cell-based FLIPR calcium assay for positive modulation of the activation of mGluR5 by glutamate (PAM EC50). Conditions: HEK293/GLAST cells expressing recombinant human mGluR5; FLIPR calcium signal; glutamate added at its EC20; read-out: mGluR5 PAM EC50. An excerpt:
The DNA sequences encoding the structural regions for rat mGluR5 [Abe T, Sugihara H, Nawa H, Shigemoto R, Mizuno N, Nakanishi S (1992) “Molecular characterization of a novel metabotropic glutamate receptor mGluR5 coupled to inositol phosphate/Ca^2+ signal transduction” Journal of Biological Chemistry vol. 267, no. 19, pp. 13361-8] and human mGluR5 [Daggett L P, Sacaan A I, Akong M, Rao S P, Hess S D, Liaw C, Urrutia A, Jachec C, Ellis S B, Dreessen J, Knöpfel T, Landwehrmeyer G B, Testa C M, Young A B, Varney M, Johnson E C, Veliçelebi (1995) “Molecular and functional characterization of recombinant human metabotropic glutamate receptor subtype 5” Neuropharmacology vol. 34, no. […] 53, no. 3, pp. 355-369] was obtained from Dr. Michael Robinson of the Children's Hospital of Philadelphia under a Material Transfer Agreement. The pcDNAzeo3.1 vector DNA, carrying either rat mGluR5 or human mGluR5, was used to transfect a sample of the HEK293/GLAST cells, and single clones that express mGluR5 were isolated from the transfected cells using zeocin selection. Expression of mGluR5 was assessed by measurement of the transient fluorescence signal elicited from HEK293/GLAST/mGluR5 cells by glutamate following the loading of the cells with a calcium-sensitive dye using a FLIPR Tetra (Fluorometric Imaging Plate Reader) (Molecular Devices, Sunnyvale, Calif.) [O'Brien J A, Lemaire W, Chen T B, Chang R S, Jacobson M A, Ha S N, Lindsley C W, Schaffhauser H J, Sur C, Pettibone D J, Conn P J, Williams D L Jr. […] 64, no. 3, pp. 731-740; Assay Guidance Manual Version 5.0, 2008, Eli Lilly and Company and NIH Chemical Genomics Center; available online HEK293/GLAST/mGluR5 cells were grown in Dulbecco's Modified Eagle Medium (DMEM) supplemented with 10% dialyzed fetal bovine serum, 20 millimolar (mM) N-2-hydroxyethylpiperazine-N′-2-ethanesulfonic acid (HEPES), penicillin, streptomycin, 1% GlutaMax™ (Invitrogen) and 50 μg/ml zeocin. Cells were grown in the media to 70-80% confluency at 37° C. under 5% CO2, 95% humidity in poly-D-lysine coated coated flasks. Cells for assays were plated into 96-well sterile standard microtiter plates (pre-coated with poly-D-lysine) at a density of 50,000 cells per well in 0.2 milliliters of media. Plated cells were allowed to settle and adhere for 30 minutes at ambient conditions, and then were incubated overnight at 37° C. under 5% CO2, 95% humidity. Several such 96-well plates were typically prepared. On the day of the assays, the components of the FLIPR calcium 4 assay kit (Molecular Devices) were dissolved according to the instructions of the dye kit's manufacturer in assay buffer (Hank's balanced salt solution (HBSS) (Gibco) supplemented with 20 mM HEPES). After removal of the growth media from the first plate, cells were loaded with calcium dye by addition of calcium dye solution (50 microliters per well) and incubation at 25° C. for 45 to 60 minutes. The first plate was placed into the FLIPR Tetra, and a dilution series of glutamate solutions in assay buffer were added to wells on the plate, followed by acquisition of fluorescence data for several minutes. The fluorescence data (maximal signal as a 4-parameter sigmoidal function of log [glutamate]) were processed by non-linear regression methods using the software package GraphPad Prism 5.01 (GraphPad Software Inc.), to yield a glutamate concentration-response curve (CRC). […] These values were, respectively, the concentrations of glutamate that elicit 20%, 50%, and 80% of the maximal FLIPR signal (observed at saturating [glutamate]). The method for measuring the concentration response of a potentiator, or positive allosteric modulator (PAM), is described here as an example. For that purpose, subsequent assays were typically performed using assay buffer containing a glutamate concentration equal to that day's EC20. […] Addition to certain wells of the same buffer containing 0.3% DMSO, but without any test compound, provided a negative control.
For the molecule `O=c1c2ccc(C#Cc3ccc(F)cc3)cc2ncn1CC1CCCO1` (single isomer, unassigned) [1.15/1.16 faster moving enantiomer (fraction 1), 7-((4-fluorophenyl)ethynyl)-3-((tetrahydrofuran-2-yl)methyl)quinazolin-4(3H)-one], the EC50 lay in the range of 10 to 30 nM. Regarding `O=c1c2ccc(C#Cc3ccc(F)cc3)cc2ncn1CC1CCCO1` (single isomer, unassigned) [1.15/1.16 slower moving enantiomer (fraction 2), 7-((4-fluorophenyl)ethynyl)-3-((tetrahydrofuran-2-yl)methyl)quinazolin-4(3H)-one], the EC50 lay in the range of 100 to 300 nM. As for `CC1Cc2nc3cc(C#Cc4ccccn4)ccc3c(=O)n2C1` (single isomer, unassigned) [3.12/3.13 faster moving enantiomer (fraction 1), 2-methyl-6-(pyridin-2-ylethynyl)-2,3-dihydropyrrolo[2,1-b]quinazolin-9(1H)-one], the EC50 lay within 30 to 100 nM. The result for `CC1Cc2nc3cc(C#Cc4ccccn4)ccc3c(=O)n2C1` (single isomer, unassigned) [3.12/3.13 slower moving enantiomer (fraction 2), 2-methyl-6-(pyridin-2-ylethynyl)-2,3-dihydropyrrolo[2,1-b]quinazolin-9(1H)-one] reads 10 to 30 nM.

For the molecule `COCC1CCc2nc3cc(C#Cc4ccccn4)ccc3c(=O)n2C1` (single isomer, unassigned) [4.34a/4.34b faster moving enantiomer (fraction 1), 8-(methoxymethyl)-3-(pyridin-2-ylethynyl)-8,9-dihydro-6H-pyrido[2,1-b]quinazolin-11(7H)-one], the EC50 lay within 30 to 100 nM. Turning to `COCC1CCc2nc3cc(C#Cc4ccccn4)ccc3c(=O)n2C1` (single isomer, unassigned) [4.34a/4.34b slower moving enantiomer (fraction 2), 8-(methoxymethyl)-3-(pyridin-2-ylethynyl)-8,9-dihydro-6H-pyrido[2,1-b]quinazolin-11(7H)-one], the EC50 fell in the range of 30 to 100 nM. Consider `CC1CCc2nc3cc(C#Cc4ccccn4)ccc3c(=O)n2CC1` (single isomer, unassigned) [6.10/6.11 faster moving enantiomer (fraction 1), 8-methyl-3-(pyridin-2-ylethynyl)-7,8,9,10-tetrahydroazepino[2,1-b]quinazolin-12(6H)-one], for which the EC50 was < 10 nM. `CC1CCc2nc3cc(C#Cc4ccccn4)cnc3c(=O)n2CC1` (single isomer, unassigned) [11.9a/11.9b faster moving enantiomer (fraction 1), 8-methyl-3-(pyridin-2-ylethynyl)-7,8,9,10-tetrahydropyrido[3′,2′: 4,5]pyrimido[1,2-a]azepin-12(6H)-one]: the EC50 lay within 30 to 100 nM. With `CC1CCc2nc3cc(C#Cc4ccccn4)cnc3c(=O)n2CC1` (single isomer, unassigned) [11.9a/11.9b slower moving enantiomer (fraction 2), 8-methyl-3-(pyridin-2-ylethynyl)-7,8,9,10-tetrahydropyrido[3′,2′:4,5]pyrimido[1,2-a]azepin-12(6H)-one], the EC50 fell in the range of 10 to 30 nM. The result for `CC1(F)CCc2nc3cc(C#Cc4ccccn4)ccc3c(=O)n2CC1` (single isomer, unassigned) [Example 6.48a/6.48b faster moving enantiomer (fraction 1), 8-fluoro-8-methyl-3-(pyridin-2-ylethynyl)-7,8,9,10-tetrahydroazepino[2,1-b]quinazolin-12(6H)-one] reads < 10 nM; that for `CC1(F)CCc2nc3cc(C#Cc4ccccn4)ccc3c(=O)n2CC1` (single isomer, unassigned) [Example 6.48a/6.48b slower moving enantiomer (fraction 2), 8-fluoro-8-methyl-3-(pyridin-2-ylethynyl)-7,8,9,10-tetrahydroazepino[2,1-b]quinazolin-12(6H)-one], < 10 nM. Turning to `COC1(C)CCc2nc3cc(C#Cc4ccccn4)ccc3c(=O)n2CC1` (single isomer, unassigned) [Example 6.50a/6.50b slower moving enantiomer (fraction 2), 8-methoxy-8-methyl-3-(pyridin-2-ylethynyl)-7,8,9,10-tetrahydroazepino[2,1-b]quinazolin-12(6H)-one], the EC50 is 10 to 30 nM. In the case of `O=c1c2ccc(C#Cc3ccccn3)cc2nc2n1CC1CCCN1CC2` (single isomer, unassigned) [Example 9.4a/9.4b faster moving enantiomer (fraction 1), 9-(pyridin-2-ylethynyl)-2,3,5,6,14,14a-hexahydropyrrolo[2′,1′:3,4][1,4]diazepino[7,1-b]quinazolin-12(1H)-one], the EC50 is 30 to 100 nM.

With `O=c1c2ccc(C#Cc3ccccn3)cc2nc2n1CC1CCCN1CC2` (single isomer, unassigned) [Example 9.4a/9.4b slower moving enantiomer (fraction 2), 9-(pyridin-2-ylethynyl)-2,3,5,6,14,14a-hexahydropyrrolo[2′,1′:3,4][1,4]diazepino[7,1-b]quinazolin-12(1H)-one], the 50% effective concentration (EC50) lay within 100 to 300 nM. Regarding `O=c1[nH]cnc2cc(C#Cc3cccc(F)c3)ccc12` [Example 1.2, 7-((3-fluorophenyl)ethynyl)quinazolin-4(3H)-one], the EC50 is 300 to 1000 nM. The result for `Cn1cnc2cc(C#Cc3ccccc3)ccc2c1=O` [Example 1.3, 3-methyl-7-(phenylethynyl)quinazolin-4(3H)-one] reads 100 to 300 nM; that for `Cn1cnc2cc(C#Cc3nccs3)ccc2c1=O` [Example 1.5, 3-methyl-7-(thiazol-2-ylethynyl)quinazolin-4(3H)-one], 300 to 1000 nM. As for `CCCn1cnc2cc(C#Cc3ccc(F)cc3)ccc2c1=O` [Example 1.6, 7-((4-fluorophenyl)ethynyl)-3-propylquinazolin-4(3H)-one], the EC50 lay within 100 to 300 nM. The result for `CCCn1cnc2cc(C#Cc3cccc(F)c3)ccc2c1=O` [Example 1.7, 7-((3-fluorophenyl)ethynyl)-3-propylquinazolin-4(3H)-one] reads 10 to 30 nM. For `O=c1c2ccc(C#Cc3cccc(F)c3)cc2ncn1CC1CC1` [Example 1.8, 3-(cyclopropylmethyl)-7-((3-fluorophenyl)ethynyl) quinazolin-4(3H)-one] the value was 30 to 100 nM; for `O=c1c2ccc(C#Cc3ccc(F)cc3)cc2ncn1CC1CC1` [Example 1.9, 3-(cyclopropylmethyl)-7-((4-fluorophenyl)ethynyl)quinazolin-4(3H)-one], 100 to 300 nM. For `O=c1c2ccc(C#Cc3ccc(F)cc3)cc2ncn1C1CCCC1` [Example 1.10, 3-cyclopentyl-7-((4-fluorophenyl)ethynyl)quinazolin-4(3H)-one] the value was 30 to 100 nM; for `O=c1c2ccc(C#Cc3cccc(F)c3)cc2ncn1C1CCCC1` [Example 1.11, 3-cyclopentyl-7-((3-fluorophenyl)ethynyl)quinazolin-4(3H)-one], 10 to 30 nM; for `COCCn1cnc2cc(C#Cc3ccc(F)cc3)ccc2c1=O` [Example 1.12, 7-((4-fluorophenyl)ethynyl)-3-(2-methoxyethyl)quinazolin-4(3H)-one], 30 to 100 nM. Regarding `O=c1c2ccc(C#Cc3ccc(F)cc3)cc2ncn1CC1CCCO1` (stereo not shown) [Example 1.13, 7-((4-fluorophenyl)ethynyl)-3-((tetrahydrofuran-2-yl)methyl)quinazolin-4(3H)-one], the EC50 lay within 30 to 100 nM.

What is called EC50 is the midpoint of the concentration-response curve.
